The numbers were not newly measured in patent US8057811B2 (Douglas Pharmaceuticals Limited, priority 2003, dated 2011), which cites them from elsewhere.

Take `CN1CCN(C2=Nc3cc(Cl)ccc3Nc3ccccc32)CC1` [Clozapine]: the solubility in water entry is “practically insoluble in water”.
